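Cultured in 96-well plates, cells were exposed to test compound for 48 hours across five concentrations. GI50 = concentration required for 50% inhibition of growth. TGI is the concentration that stops growth completely.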
Key:
Assay in all cases: NCI anticancer screen, dose series, 48 h
RPMI-8226 leukemia = tested on: RPMI-8226 leukemia
M14 melanoma = tested on: M14 melanoma
SF-295 CNS = tested on: SF-295 CNS
HT29 colon = tested on: HT29 colon
NCI-H23 lung = tested on: NCI-H23 lung
UO-31 renal = tested on: UO-31 renal
OVCAR-8 ovarian = tested on: OVCAR-8 ovarian
RXF 393 renal = tested on: RXF 393 renal
HOP-92 NSCLC = tested on: HOP-92 NSCLC
DU-145 prostate = tested on: DU-145 prostate
EKVX NSCLC = tested on: EKVX NSCLC
KM12 colon = tested on: KM12 colon
CCRF-CEM leukemia = tested on: CCRF-CEM leukemia
COLO 205 colon = tested on: COLO 205 colon
786-0 renal = tested on: 786-0 renal
LOX IMVI melanoma = tested on: LOX IMVI melanoma
UACC-257 melanoma = tested on: UACC-257 melanoma
NCI-H226 lung = tested on: NCI-H226 lung
A549 NSCLC = tested on: A549 NSCLC
MDA-MB-435 = tested on: MDA-MB-435
HCT-116 colon = tested on: HCT-116 colon
SK-MEL-2 melanoma = tested on: SK-MEL-2 melanoma
IGROV1 ovarian = tested on: IGROV1 ovarian
SNB-19 CNS = tested on: SNB-19 CNS
PC-3 prostate = tested on: PC-3 prostate
MCF7 breast = tested on: MCF7 breast
SN12C renal = tested on: SN12C renal
SK-OV-3 ovarian = tested on: SK-OV-3 ovarian
HL-60(TB) leukemia = tested on: HL-60(TB) leukemia
K-562 leukemia = tested on: K-562 leukemia
HCT-15 colon = tested on: HCT-15 colon
SF-268 CNS = tested on: SF-268 CNS
HCC-2998 colon = tested on: HCC-2998 colon
OVCAR-5 ovarian = tested on: OVCAR-5 ovarian
NCI/ADR-RES ovarian = tested on: NCI/ADR-RES ovarian
A498 renal = tested on: A498 renal
HOP-62 NSCLC = tested on: HOP-62 NSCLC
ACHN renal = tested on: ACHN renal
MDA-MB-231 breast = tested on: MDA-MB-231 breast
HS 578T breast = tested on: HS 578T breast
OVCAR-3 ovarian = tested on: OVCAR-3 ovarian
SNB-75 CNS = tested on: SNB-75 CNS
SK-MEL-28 melanoma = tested on: SK-MEL-28 melanoma
SW-620 colon = tested on: SW-620 colon
SR leukemia = tested on: SR leukemia
OVCAR-4 ovarian = tested on: OVCAR-4 ovarian
NCI-H522 lung = tested on: NCI-H522 lung
T-47D breast = tested on: T-47D breast
SF-539 CNS = tested on: SF-539 CNS
CAKI-1 renal = tested on: CAKI-1 renal
NCI-H460 lung = tested on: NCI-H460 lung
MOLT-4 leukemia = tested on: MOLT-4 leukemia
U251 CNS = tested on: U251 CNS
BT-549 breast = tested on: BT-549 breast
TK-10 renal = tested on: TK-10 renal

Cc1cc(=O)[nH]c(N/N=C/c2cc(Br)ccc2O)n1 gave a GI50 (RPMI-8226 leukemia) of 0.843 µM, a TGI (RPMI-8226 leukemia) of over 100 µM and a GI50 (M14 melanoma) of 0.53 µM. For the same compound, the TGI (M14 melanoma) was over 100 µM, the GI50 (SF-295 CNS) was 0.193 µM and the TGI (SF-295 CNS) was 0.568 µM. It also gave a GI50 (HT29 colon) of 13.3 µM, a TGI (HT29 colon) of over 100 µM and a GI50 (NCI-H23 lung) of 0.481 µM. The TGI (NCI-H23 lung) was over 100 µM, the GI50 (UO-31 renal) was 0.435 µM and the TGI (UO-31 renal) was 3.21 µM. The GI50 (OVCAR-8 ovarian) was 0.369 µM, the TGI (OVCAR-8 ovarian) was 35.6 µM and the GI50 (RXF 393 renal) was 3.35 µM. It also gave a TGI (RXF 393 renal) of over 100 µM, a GI50 (HOP-92 NSCLC) of 19.3 µM and a TGI (HOP-92 NSCLC) of over 100 µM. For the same compound, the GI50 (DU-145 prostate) was 1.78 µM, the TGI (DU-145 prostate) was over 100 µM and the GI50 (EKVX NSCLC) was 1.82 µM. It also gave a TGI (EKVX NSCLC) of 7.67 µM, a GI50 (KM12 colon) of 0.869 µM and a TGI (KM12 colon) of over 100 µM. For the same compound, the GI50 (CCRF-CEM leukemia) was 0.441 µM, the TGI (CCRF-CEM leukemia) was over 100 µM and the GI50 (COLO 205 colon) was 3.45 µM. It also gave a TGI (COLO 205 colon) of 32.5 µM, a GI50 (786-0 renal) of 2.35 µM and a TGI (786-0 renal) of over 100 µM. It also gave a GI50 (LOX IMVI melanoma) of 0.634 µM, a TGI (LOX IMVI melanoma) of over 100 µM and a GI50 (UACC-257 melanoma) of 0.383 µM. The TGI (UACC-257 melanoma) was 9.12 µM, the GI50 (NCI-H226 lung) was 2.1 µM and the TGI (NCI-H226 lung) was over 100 µM. It also gave a GI50 (A549 NSCLC) of 1.84 µM, a TGI (A549 NSCLC) of over 100 µM and a GI50 (MDA-MB-435) of 1.77 µM. The TGI (MDA-MB-435) was 81.5 µM, the GI50 (HCT-116 colon) was 0.353 µM and the TGI (HCT-116 colon) was over 100 µM. The GI50 (SK-MEL-2 melanoma) was 49.3 µM, the TGI (SK-MEL-2 melanoma) was over 100 µM and the GI50 (IGROV1 ovarian) was 0.257 µM. The TGI (IGROV1 ovarian) was 0.706 µM, the GI50 (SNB-19 CNS) was 3.56 µM and the TGI (SNB-19 CNS) was over 100 µM. For the same compound, the GI50 (PC-3 prostate) was 0.698 µM, the TGI (PC-3 prostate) was over 100 µM and the GI50 (MCF7 breast) was 0.318 µM. For the same compound, the TGI (MCF7 breast) was 16.6 µM, the GI50 (SN12C renal) was 0.809 µM and the TGI (SN12C renal) was over 100 µM. For the same compound, the GI50 (SK-OV-3 ovarian) was 1.34 µM, the TGI (SK-OV-3 ovarian) was over 100 µM and the GI50 (HL-60(TB) leukemia) was 0.446 µM. For the same compound, the TGI (HL-60(TB) leukemia) was 5.68 µM, the GI50 (K-562 leukemia) was 0.605 µM and the TGI (K-562 leukemia) was over 100 µM. It also gave a GI50 (HCT-15 colon) of 0.606 µM, a TGI (HCT-15 colon) of over 100 µM and a GI50 (SF-268 CNS) of 0.728 µM. It also gave a TGI (SF-268 CNS) of over 100 µM, a GI50 (HCC-2998 colon) of 1.85 µM and a TGI (HCC-2998 colon) of over 100 µM. For the same compound, the GI50 (OVCAR-5 ovarian) was 5.07 µM, the TGI (OVCAR-5 ovarian) was over 100 µM and the GI50 (NCI/ADR-RES ovarian) was 0.35 µM. It also gave a TGI (NCI/ADR-RES ovarian) of over 100 µM, a GI50 (A498 renal) of 4.06 µM and a TGI (A498 renal) of 25.4 µM. The GI50 (HOP-62 NSCLC) was 1.41 µM, the TGI (HOP-62 NSCLC) was over 100 µM and the GI50 (ACHN renal) was 0.927 µM. It also gave a TGI (ACHN renal) of over 100 µM, a GI50 (MDA-MB-231 breast) of 0.976 µM and a TGI (MDA-MB-231 breast) of over 100 µM. It also gave a GI50 (HS 578T breast) of 7.1 µM, a TGI (HS 578T breast) of over 100 µM and a GI50 (OVCAR-3 ovarian) of 0.34 µM. The TGI (OVCAR-3 ovarian) was 38.6 µM, the GI50 (SNB-75 CNS) was 3.33 µM and the TGI (SNB-75 CNS) was over 100 µM. The GI50 (SK-MEL-28 melanoma) was 4.55 µM, the TGI (SK-MEL-28 melanoma) was over 100 µM and the GI50 (SW-620 colon) was 0.488 µM. The TGI (SW-620 colon) was over 100 µM, the GI50 (SR leukemia) was 0.896 µM and the TGI (SR leukemia) was over 100 µM. For the same compound, the GI50 (OVCAR-4 ovarian) was 0.383 µM, the TGI (OVCAR-4 ovarian) was 33.8 µM and the GI50 (NCI-H522 lung) was 3.37 µM. For the same compound, the TGI (NCI-H522 lung) was 22 µM, the GI50 (T-47D breast) was 0.437 µM and the TGI (T-47D breast) was 56.7 µM. For the same compound, the GI50 (SF-539 CNS) was 2.78 µM, the TGI (SF-539 CNS) was 39 µM and the GI50 (CAKI-1 renal) was 1.44 µM. For the same compound, the TGI (CAKI-1 renal) was 4.89 µM, the GI50 (NCI-H460 lung) was 0.488 µM and the TGI (NCI-H460 lung) was 20.5 µM. The GI50 (MOLT-4 leukemia) was 0.432 µM, the TGI (MOLT-4 leukemia) was 15.5 µM and the GI50 (U251 CNS) was 0.808 µM. For the same compound, the TGI (U251 CNS) was over 100 µM, the GI50 (BT-549 breast) was 11 µM and the TGI (BT-549 breast) was over 100 µM. The GI50 (TK-10 renal) was 21.5 µM and the TGI (TK-10 renal) was over 100 µM.

— PubChem BioAssay (NCI)
